What is called IC50 is the concentration that inhibits the measured activity by half. For orientation: bioavailability means the share of a dose that reaches the circulation, judged against a reference dose that is usually intravenous. Read a low bioavailability as little systemic uptake. In general, half-life refers to the time needed for the level to fall by half in the phase considered.

The source made the active and inactive calls.

The values below come from ChEMBL document CHEMBL4011656, “Discovery and Optimization of Chromeno[2,3-c]pyrrol-9(2H)-ones as Novel Selective and Orally Bioavailable Phosphodiesterase 5 Inhibitors for the Treatment of Pulmonary Arterial Hypertension” (J Med Chem, 2017).

Series [1] addresses cGMP-specific 3',5'-cyclic phosphodiesterase (Homo sapiens, UniProt O76074).
A short description of series [2]: Oral bioavailability in Sprague-Dawley rat by LC-MS/MS analysis. The conditions noted are these: in vivo. Type of series: ADME, organism-based.
Series [3] is described as follows: Oral bioavailability in rat. Type of series: ADME, organism-based. The conditions noted are these: in vivo.
In series [4] the test system is Rattus norvegicus. Description: Reduction in MCT-induced increase in mean pulmonary arterial pressure in Wistar rat model of monocrotaline pulmonary arterial hypertension assessed as mean pulmonary arterial pressure at 10 mg/kg, po for 3 weeks (reference value: 32.74 mmHg). Type of series: functional.
Series [5] is filed under the species Rattus norvegicus. The conditions noted are these: Wistar, 10 mg/kg.
Series [6] has as its system Liver. Description: Intrinsic clearance in rat liver microsomes. Type of series: ADME, microsome.
Series [7] can be described thus: Apparent clearance in rat liver microsomes. To be noted: read-out: CLH(app). Type of series: ADME, microsome. (Liver microsomes are vesicles of endoplasmic reticulum, rich in cytochrome P450 enzymes.)
Series [8] concerns Liver. Description: Drug metabolism in rat liver microsomes assessed as metabolic rate. Type of series: ADME, microsome.
Series [9] is described as follows: Hepatic extraction ratio in human microsomes. Type of series: ADME, microsome. To be noted: liver microsomes, read-out: ERH.
Series [10] can be described thus: Hepatic clearance in human microsomes. Type of series: ADME, microsome. The conditions noted are these: liver microsomes.
The nature of series [11]: Apparent clearance in human microsomes. Type of series: ADME, microsome. To be noted: liver microsomes, read-out: CLH(app).
Series [12] can be described thus: Hepatic extraction ratio in rat liver microsomes. The conditions noted are these: read-out: ERH. Type of series: ADME, microsome.
A short description of series [13]: Half life in rat liver microsomes. Type of series: ADME, microsome.
Series [14] relates to Liver. Description: Drug metabolism in human liver microsomes assessed as metabolic rate. Type of series: ADME, microsome.
Series [15] is described as follows: Hepatic clearance in rat liver microsomes. Type of series: ADME, microsome.
Series [16] in a line: Half life in human microsomes. Type of series: ADME, microsome. To be noted: liver microsomes.
In series [17] the test system is Liver. Description: Intrinsic clearance in human liver microsomes. Type of series: ADME, microsome.

Take `O=c1c2ccccc2oc2c(Cc3ccc(O)cc3)[nH]c(-c3ccncc3Cl)c12`: the IC50 in [1] was over 100 nM.

`O=C(c1[nH]c(Cc2ccc(O)cc2)c2oc3ccccc3c(=O)c12)N1CCN(C2CC2)CC1` returned an IC50 in [1] of over 100 nM.

For the compound `O=c1c2ccccc2oc2c(Cc3ccc(O)cc3)[nH]c(-c3ccncc3)c12`, the IC50 in series [1] was over 100 nM.

As to `O=c1c2ccccc2oc2c(Cc3ccc(O)cc3)[nH]c(-c3ccccn3)c12`, inhibition in series [1] was half-maximal at 21 nM (IC50).

In the case of `COc1ncccc1-c1[nH]c(Cc2ccc(O)cc2)c2oc3ccccc3c(=O)c12`, the IC50 in series [1] was over 100 nM.

Turning to `O=c1c2ccccc2oc2c(Cc3ccc(O)cc3)[nH]c(-c3ccncn3)c12`, the IC50 in [1] came to 56 nM.

Consider `O=c1c2ccccc2oc2c(Cc3ccc(O)cc3)[nH]c(-c3cccnc3O)c12`, for which the IC50 in series [1] was over 100 nM.

Regarding `O=C(c1[nH]c(Cc2ccc(O)cc2)c2oc3ccccc3c(=O)c12)N1CCOCC1`, the IC50 in series [1] was over 100 nM.

Take `O=c1c2ccccc2oc2c(Cc3ccc(O)cc3)[nH]c(-c3nccs3)c12`: the bioavailability in series [2] is under 10%. Further, in series [1], 5.4 nM corresponded to half-maximal inhibition (IC50).

`COC(=O)c1[nH]c(Cc2ccc(O)cc2)c2oc3ccccc3c(=O)c12` displayed an IC50 in series [1] of 31 nM.

For `O=c1c2ccccc2oc2c(Cc3ccc(O)cc3)[nH]c(-c3cccnc3Cl)c12`, the IC50 in series [1] was over 100 nM.

The compound `O=c1c2ccccc2oc2c(Cc3ccc(O)cc3)[nH]c(-c3ccccc3F)c12` returned an IC50 in series [1] of 16 nM.

As for `O=c1c2ccccc2oc2c(Cc3ccc(C(F)(F)F)cc3)[nH]c(-c3nccs3)c12`, the midpoint of inhibition in [1], the IC50, lay at 30 nM.

In the case of `Cc1ccc(-c2[nH]c(Cc3ccc(O)cc3)c3oc4ccccc4c(=O)c23)cc1`, the IC50 in series [1] was over 100 nM.

On to `Cc1nnc(-c2[nH]c(Cc3ccc(O)cc3)c3oc4ccccc4c(=O)c23)o1`, for which, in [1], the IC50 is over 100 nM.

Regarding `CCCc1nn(C)c2c(=O)[nH]c(-c3cc(S(=O)(=O)N4CCN(C)CC4)ccc3OCC)nc12.O=C(O)CC(O)(CC(=O)O)C(=O)O` [SILDENAFIL CITRATE], in series [3], the bioavailability was determined as 41%. Also, the Activity in the series with Rattus norvegicus [4] is 22.13 mmHg. Moreover, the inhibition result in the series filed under Rattus norvegicus [5] was “Active”.

In the case of `CC(C)(C)Oc1ccc(Cc2[nH]c(-c3nccs3)c3c(=O)c4ccccc4oc23)cc1`, the IC50 in series [1] is over 100 nM.

In series [1], `O=c1c2ccccc2oc2c(Cc3ccc(O)cc3)[nH]c(-c3cccnc3)c12` returned an IC50 of 77 nM.

`O=c1c2ccccc2oc2c(Cc3ccc(O)cc3)[nH]c(-c3cc(Cl)ccn3)c12`: in [1], the IC50 is over 100 nM.

For `Cc1ncc2n1-c1ccc(Cl)cc1C(c1ccccc1F)=NC2` [MIDAZOLAM], the CLH in the series with Liver [6] was 574 µL/min/mg; in the series on Liver [17], 506.4 µL/min/mg. Besides, the CLint scaled in series [7] amounted to 1040 mL/min/kg; in [11] it was 488 mL/min/kg. Moreover, the results for the K in the series with Liver [8] and with Liver [14] were 0.2877 and 0.2532, respectively. In addition, the hepatic extraction ratio in [9] was determined as 0.96; in [12], 0.95. The figures for the CLhep predicted in series [10] and in series [15] were 19.2 mL/min/kg and 53.2 mL/min/kg, respectively. Further, the half-life is 2.4 min in series [13] and 2.7 min in series [16].

Turning to `CC(C)N1CCN(C(=O)c2[nH]c(Cc3ccc(O)cc3)c3oc4ccccc4c(=O)c23)CC1`, in series [1], the IC50 was over 100 nM.

Consider `O=c1c2ccccc2oc2c(Cc3ccc(O)cc3)[nH]c(-c3ccc(Cl)cn3)c12`, for which, in [1], the IC50 amounted to 50 nM.
